Each structure is given as a SMILES string. Structures can show the parent of a compound that is named as a salt.

The assay concerns the target T1, human TRPC6 (Homo sapiens, UniProt Q9Y210).
T1 construct: expressed in transfected cells
T1 sequence (Q9Y210 1-931): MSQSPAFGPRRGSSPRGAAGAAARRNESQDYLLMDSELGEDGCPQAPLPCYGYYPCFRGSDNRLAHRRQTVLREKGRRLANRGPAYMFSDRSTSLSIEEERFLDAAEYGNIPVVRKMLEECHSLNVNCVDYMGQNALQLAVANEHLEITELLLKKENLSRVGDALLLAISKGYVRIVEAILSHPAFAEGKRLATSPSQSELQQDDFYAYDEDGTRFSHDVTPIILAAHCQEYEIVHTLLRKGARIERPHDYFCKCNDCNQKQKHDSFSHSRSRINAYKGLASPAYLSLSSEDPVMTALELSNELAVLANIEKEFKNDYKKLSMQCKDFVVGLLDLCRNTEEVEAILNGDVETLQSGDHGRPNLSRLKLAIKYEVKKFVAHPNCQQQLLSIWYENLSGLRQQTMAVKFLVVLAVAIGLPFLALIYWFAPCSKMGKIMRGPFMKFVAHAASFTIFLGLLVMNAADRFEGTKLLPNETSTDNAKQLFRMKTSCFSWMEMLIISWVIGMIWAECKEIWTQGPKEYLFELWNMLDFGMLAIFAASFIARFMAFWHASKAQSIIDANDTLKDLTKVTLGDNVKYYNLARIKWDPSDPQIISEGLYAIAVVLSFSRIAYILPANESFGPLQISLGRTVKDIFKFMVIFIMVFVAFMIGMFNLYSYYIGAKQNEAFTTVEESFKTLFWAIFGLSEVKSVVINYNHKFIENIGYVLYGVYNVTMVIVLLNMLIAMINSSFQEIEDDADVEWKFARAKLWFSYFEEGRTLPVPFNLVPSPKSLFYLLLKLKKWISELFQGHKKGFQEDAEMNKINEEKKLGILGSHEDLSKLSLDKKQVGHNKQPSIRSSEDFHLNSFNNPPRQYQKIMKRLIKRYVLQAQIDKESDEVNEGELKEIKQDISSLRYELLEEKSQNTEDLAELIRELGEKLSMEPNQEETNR
In words: TRPC6 calcium flux assay (FLIPR, OAG-stimulated calcium influx). Format: cell-based. To be noted: HEK293 cells stably transfected with human TRPC6, read-out: hTRPC6 Potency. The essentials: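 HEK293 cells stably expressing human TRPC6, loaded with calcium dye 90–120 min at RT, then given compound for 25 min before OAG (50 uM final, 0.5% DMSO) in HEPES buffer pH 7.2 with 2 mM CaCl2. Background-subtracted FLIPR peak over 180 s normalized to OAG vs buffer; IC50 from dose plot.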
With `C[C@H](c1ccc(C#N)cn1)n1c(N2CC[C@@H](F)[C@H](N)C2)nc2ccc(C#N)cc21` [Example 223, 2-((3R,4R)-3-amino-4-fluoropiperidin-1-yl)-1-((R)-1-(5-cyanopyridin-2-yl)ethyl)-1H-benzo[d]imidazole-6-carbonitrile hydrochloride], the IC50 came to 51.5 nM.
Then `C[C@H](c1ccc(C#N)cn1)n1c(N2CC[C@@H](F)[C@H](N)C2)nc2cc(C#N)ccc21` [Example 224, 2-((3R,4R)-3-amino-4-fluoropiperidin-1-yl)-1-((R)-1-(5-cyanopyridin-2-yl)ethyl)-1H-benzo[d]imidazole-5-carbonitrile hydrochloride], with 158 nM.
Turning to `C[C@@H](c1ccc(C#N)cn1)n1c(N2CC[C@@H](F)[C@H](N)C2)nc2ccc(C#N)cc21` [Example 225, 2-((3R,4R)-3-amino-4-fluoropiperidin-1-yl)-1-((S)-1-(5-cyanopyridin-2-yl)ethyl)-1H-benzo[d]imidazole-6-carbonitrile hydrochloride], the IC50 is 2.81 nM.
Then `C[C@@H](c1ccc(C#N)cn1)n1c(N2CC[C@@H](F)[C@H](N)C2)nc2cc(C#N)ccc21` [Example 226, 2-((3R,4R)-3-amino-4-fluoropiperidin-1-yl)-1-((S)-1-(5-cyanopyridin-2-yl)ethyl)-1H-benzo[d]imidazole-5-carbonitrile hydrochloride], with 13.7 nM; and `N[C@@H]1CN(c2nc3cc(F)c(F)cc3n2Cc2ccc(Cl)cn2)CC[C@H]1F` [Example 227, (3R,4R)-1-(1-((5-chloropyridin-2-yl)methyl)-5,6-difluoro-1H-benzo[d]imidazol-2-yl)-4-fluoropiperidin-3-amine hydrochloride], with 0.328 nM.
On to `N[C@@H]1CN(c2nc3cc(F)c(F)cc3n2Cc2ccc(F)cn2)CC[C@H]1F` [Example 228, (3R,4R)-1-(5,6-difluoro-1-((5-fluoropyridin-2-yl)methyl)-1H-benzo[d]imidazol-2-yl)-4-fluoropiperidin-3-amine hydrochloride], for which the IC50 was determined as 0.32 nM.
`N[C@@H]1CN(c2nc3cc(F)cc(F)c3n2Cc2ccc(Cl)cn2)CCC1(F)F` [Example 229, (R)-1-(1-((5-chloropyridin-2-yl)methyl)-5,7-difluoro-1H-benzo[d]imidazol-2-yl)-4,4-difluoropiperidin-3-amine hydrochloride]: the IC50 was 42.2 nM.
As for `N[C@@H]1CN(c2nc3c(F)cc(F)cc3n2Cc2ccc(Cl)cn2)CCC1(F)F` [Example 230, (R)-1-(1-((5-chloropyridin-2-yl)methyl)-4,6-difluoro-1H-benzo[d]imidazol-2-yl)-4,4-difluoropiperidin-3-amine hydrochloride], the IC50 was 0.49 nM.
Then `N#Cc1ccc2c(c1)CC[C@H]2n1c(N2CC[C@@H](F)[C@H](N)C2)nc2ccccc21` [Example 231, (R)-1-(2-((3R,4R)-3-amino-4-fluoropiperidin-1-yl)-1H-benzo[d]imidazol-1-yl)-2,3-dihydro-1H-indene-5-carbonitrile hydrochloride], with 737 nM.
Next, `N#Cc1ccc2c(c1)CC[C@@H]2n1c(N2CC[C@@H](F)[C@H](N)C2)nc2ccccc21` [Example 232, (S)-1-(2-((3R,4R)-3-amino-4-fluoropiperidin-1-yl)-1H-benzo[d]imidazol-1-yl)-2,3-dihydro-1H-indene-5-carbonitrile hydrochloride]: 2.16 nM.
Consider `N#Cc1cnc(Cn2c(N3CCC(F)(F)[C@H](N)C3)nc3ccc(Cl)cc32)cn1` [Example 233, (R)-5-((2-(3-amino-4,4-difluoropiperidin-1-yl)-6-chloro-1H-benzo[d]imidazol-1-yl)methyl)pyrazine-2-carbonitrile], for which the IC50 was determined as 1.47 nM.
For `N#Cc1cnc(Cn2c(N3CCC(F)(F)[C@H](N)C3)nc3cc(Cl)ccc32)cn1` [Example 234, (R)-5-((2-(3-amino-4,4-difluoropiperidin-1-yl)-5-chloro-1H-benzo[d]imidazol-1-yl)methyl)pyrazine-2-carbonitrile], the IC50 is 26.9 nM.
Turning to `CC(C)NC(=O)Cn1c(N2CC[C@@H](F)[C@H](N)C2)nc2cc(F)c(F)cc21` [Example 235, 2-(2-((3R,4R)-3-amino-4-fluoropiperidin-1-yl)-5,6-difluoro-1H-benzo[d]imidazol-1-yl)-N-isopropylacetamide], the IC50 stood at 150 nM.
On to `N[C@@H]1CN(c2nc3cc(F)c(F)cc3n2CC(=O)N2CCC2)CC[C@H]1F` [Example 236, 2-(2-((3R,4R)-3-amino-4-fluoropiperidin-1-yl)-5,6-difluoro-1H-benzo[d]imidazol-1-yl)-1-(azetidin-1-yl)ethanone], for which the IC50 amounted to 23.8 nM.
On to `COc1cnc(Cn2c(N3CC[C@@H](F)[C@H](N)C3)nc3cc(C#N)ccc32)nc1` [Example 241, 2-((3R,4R)-3-amino-4-fluoropiperidin-1-yl)-1-((5-methoxypyrimidin-2-yl)methyl)-1H-benzo[d]imidazole-5-carbonitrile hydrochloride], for which the IC50 was > 3750 nM.
`COc1cnc(Cn2c(N3CC[C@@H](F)[C@H](N)C3)nc3ccc(C#N)cc32)nc1` [Example 242, 2-((3R,4R)-3-amino-4-fluoropiperidin-1-yl)-1-((5-methoxypyrimidin-2-yl)methyl)-1H-benzo[d]imidazole-6-carbonitrile hydrochloride]: the IC50 is 73.5 nM.
For `N#Cc1ccc2nc(N3CC[C@@H](F)[C@H](N)C3)n(Cc3ccc(C(F)(F)F)nc3)c2c1` [Example 243, 2-((3R,4R)-3-amino-4-fluoropiperidin-1-yl)-1-((6-(trifluoromethyl)pyridin-3-yl)methyl)-1H-benzo[d]imidazole-6-carbonitrile hydrochloride], the IC50 came out at 1970 nM.
With `N#Cc1ccc2c(c1)nc(N1CC[C@@H](F)[C@H](N)C1)n2Cc1ccc(C(F)(F)F)nc1` [Example 244, 2-((3R,4R)-3-amino-4-fluoropiperidin-1-yl)-1-((6-(trifluoromethyl)pyridin-3-yl)methyl)-1H-benzo[d]imidazole-5-carbonitrile hydrochloride], the IC50 was > 3750 nM.
With `CN1CC[C@H](n2c(N3CC[C@@H](F)[C@H](N)C3)nc3cc(F)c(F)cc32)C1=O` [Example 245, (S)-3-(2-((3R,4R)-3-amino-4-fluoropiperidin-1-yl)-5,6-difluoro-1H-benzo[d]imidazol-1-yl)-1-methylpyrrolidin-2-one], the IC50 is 62.5 nM.
For the molecule `CN1CC[C@@H](n2c(N3CC[C@@H](F)[C@H](N)C3)nc3cc(F)c(F)cc32)C1=O` [Example 246, (R)-3-(2-((3R,4R)-3-amino-4-fluoropiperidin-1-yl)-5,6-difluoro-1H-benzo[d]imidazol-1-yl)-1-methylpyrrolidin-2-one], the IC50 was 2920 nM.
Next, `N[C@@H]1CN(c2nc3cc(F)c(F)cc3n2[C@H]2CCN(c3ccc(Cl)cc3)C2=O)CC[C@H]1F` [Example 247, (S)-3-(2-((3R,4R)-3-amino-4-fluoropiperidin-1-yl)-5,6-difluoro-1H-benzo[d]imidazol-1-yl)-1-(4-chlorophenyl)pyrrolidin-2-one]: 75.4 nM.
On to `N[C@@H]1CN(c2nc3cc(F)c(F)cc3n2[C@@H]2CCN(c3ccc(Cl)cc3)C2=O)CC[C@H]1F` [Example 248, (R)-3-(2-((3R,4R)-3-amino-4-fluoropiperidin-1-yl)-5,6-difluoro-1H-benzo[d]imidazol-1-yl)-1-(4-chlorophenyl)pyrrolidin-2-one], for which the IC50 was found to be 5.07 nM.
Next, `N#Cc1ccc2nc(N3CC[C@@H](F)[C@H](N)C3)n(Cc3cnc(C#N)cn3)c2c1` [Example 249, 2-((3R,4R)-3-amino-4-fluoro-1-piperidinyl)-1-((5-cyano-2-pyrazinyl)methyl)-1H-benzimidazole-6-carbonitrile]: 7.65 nM; `N#Cc1ccc2c(c1)nc(N1CC[C@@H](F)[C@H](N)C1)n2Cc1cnc(C#N)cn1` [Example 250, 2-((3R,4R)-3-amino-4-fluoro-1-piperidinyl)-1-((5-cyano-2-pyrazinyl)methyl)-1H-benzimidazole-5-carbonitrile]: 78.5 nM.
Regarding `N#Cc1cnc(Cn2c(N3CC[C@@H](F)[C@H](N)C3)nc3c(F)cc(F)cc32)cn1` [Example 251, 5-((2-((3R,4R)-3-amino-4-fluoro-1-piperidinyl)-4,6-difluoro-1H-benzimidazol-1-yl)methyl)-2-pyrazinecarbonitrile], the IC50 stood at 17.2 nM.
As for `N#Cc1cnc(Cn2c(N3CC[C@@H](F)[C@H](N)C3)nc3cc(F)cc(F)c32)cn1` [Example 252, 5-((2-((3R,4R)-3-amino-4-fluoro-1-piperidinyl)-5,7-difluoro-1H-benzimidazol-1-yl)methyl)-2-pyrazinecarbonitrile], the IC50 amounted to 8.76 nM.

The record behind these values is patent US11332459B2 (TEIJIN PHARMA LIMITED, priority 2017, dated 2022).
